This is an account of results in US6838084B1, “Cytotoxic T-cell epitopes of the papilloma virus l1-protein and use thereof in diagnosis and therapy” (priority 1999, dated 2005).

Common to all, as to format: cell-based, human
Test [1] deals with CVLP-stimulated T cells. The test can be described thus: Restimulation of CVLP-stimulated T cells with peptide pools, HLA A1-positive donor. The following applies: common to pools E and 6. The procedure:
The name of the particular peptide pool with which the PBMCs were loaded is listed from left to right. “None” represents PBMCs which were incubated only with buffer.
Human T cells (4×10^5) of an HLA A1-positive donor were stimulated with HPV16 L1ΔC·E71-55 CVLPs at 37° C. for 6 weeks with weekly addition of 1 μg/ml CVLPs and 10^5 antigen-presenting cells (irradiated PMBCs), and harvested.
(§1) The 20 mer peptides 1 to 51 were combined in peptide pools A to H and 1 to 7 according to the matrix
(§2) The T cells of an HLA A1-positive donor were then restimulated in 100 μl of medium at 37° C. with the peptide pools in the presence of 10 IU/ml IL2. In this connection, such amounts of peptide pools were used that for each individual peptide 1 μg/ml was added. Cells incubated only with buffer served as a negative control.
(§3) After one hour, 1 μl of Golgi Plug was added. The cells were incubated at 37° C. for a further 5 hours. The cells were then fixed and permeabilized, and stained with α-hum CD8/PE, with α-hum CD4/Cychrome and with α-hum γ-interferon/FITC. The cells were examined in a FACScan calibur with respect to their label and the data were analyzed with the aid of Cellquest software.

Test [2] deals with CVLP-stimulated T cells. The test can be described thus: Restimulation of CVLP-stimulated T cells with peptide pools, HLA A24-positive donor. The following applies: common to pools A and 2. Here is the method: The name of the particular peptide pool with which the BLCLs were loaded is listed from left to right. “None” represents BLCLs which were incubated only with buffer.
as §1, §2, §3
Furthermore, the T cells of an HLA A24-positive donor were restimulated with the peptide pools as above and analyzed.

The subject of test [3] is BLCL cells of an HLA A24-positive donor. Briefly: Lysis of BLCL cells loaded with peptide 9 (51Cr release). Here is the method: The target cells were lysed by T cells stimulated with peptides 1-43 (=effector cells) . […] The % values were calculated according to the formula given in Example 7.
BLCL cells of an HLA A24-positive donor were incubated with […] at 37° C. for one hour, washed three times with medium and divided into 2 aliquots. 10 μg/ml of peptide 9 were added to one aliquot of the cells, and the other aliquot served as a negative control in the absence of a peptide. Subsequently, in each case 2000 cells (=target cells). were added to increasing amounts of T cells (=effector cells) in a total volume of 150 μl. The T cells had been stimulated previously over 5 weeks with a mixture of 43 peptides (peptides 1-43, 1 μg/ml each). Reaction mixtures for spontaneous and maximum cell lysis were set up in parallel. For spontaneous lysis, target cells which were incubated in medium were used, and for maximum lysis target cells which were incubated with 0.5% Triton were used. The mixtures were incubated at 37° C. for 5 h. 50 μl of mixture supernatant were applied to Luma plates and dried at room temperature overnight. On the following morning, the amount of radioactive ^51Cr was determined with the aid of a Canberra-Packerd B-plate counter (counts) and compared to the maximal lysed cells of the Triton mixture. The percentage of specific lysis was determined according to the formula: x=100·(counts−spontaneous counts)/(maximal counts−spontaneous counts).

In the case of “MLDLQPETTDLYCYEQLNDS (Human papillomavirus type 16) [Peptide 45]”, in the test on CVLP-stimulated T cells [1], the “peptide responsible for restimulation, deduced from pool matrix” value is listed as “in all probability responsible for restimulation of CVLP-stimulated T cells”.

With SFYNPDTQRLVWACVGVEVG [Peptide 9], the “peptide responsible for restimulation, deduced from pool matrix” value with CVLP-stimulated T cells [2] was “in all probability responsible for restimulation of CVLP-stimulated T cells”. The “lysis of peptide-loaded BLCL target cells by T cells (51Cr release)” value in test [3] (10 μg/ml peptide, effector T cells stimulated 5 weeks with peptides 1-43, 5 h, FIG. 8) was “lyse BLCL cells loaded with peptide 9 effectively”. Besides, in test [3] (Table 2), the “Epitop-Information (HLA restriction)” value is “HLA A24 restr” and the “Epitop-Information (epitope type)” value is listed as “cytotoxic epitope”. In addition, the epitope classification entry in test [3] (conclusion from FIG. 8) is reported as “HLA A24-restricted cytotoxic T-cell epitope”.
